Experimental data from patent publication US10952435B2, “Pyridine-2-carboxamides as nematocides” (SYNGENTA PARTICIPATIONS AG, priority 2013, dated 2021).

In the case of `O=C(NCCc1ccc(F)cc1F)c1ncccc1C(F)(F)F` [A.005], the melting point is reported as 78 °C.
`Cc1cccnc1C(=O)NCC(F)(F)c1ccc(Cl)cc1Cl` [A.009, N-[2-(2,4-dichlorophenyl)-2,2-difluoro-ethyl]-3-methyl-pyridine-2-carboxamide] showed a melting point of 117 to 118 °C.
For `O=C(NCCc1ccc(Cl)cc1F)c1ncccc1C(F)(F)F` [A.002, 3-Trifluoromethyl-pyridine-2-carboxylic acid [2-(4-chloro-2-fluoro-phenyl)-ethyl]-amide], the melting point was 69 °C.
Work on `O=C(NCCc1ccc(C(F)(F)F)cc1F)c1ncccc1C(F)(F)F` [A.001, 3-Trifluoromethyl-pyridine-2-carboxylic acid [2-(2-fluoro-4-trifluoromethyl-phenyl)-ethyl]-amide] yielded a melting point of 95 °C.
